In PMC5257293 (Journal of medicinal chemistry, 2016):

Assays:
Sa43300 = experiment: Mutant selection / mutational frequency at 6x MIC; type: cell-based, Staphylococcus aureus; conditions: progenitor Sa43300, selection at 6x MIC
Sa43300(F98Y) = experiment: Mutant selection / mutational frequency at 6x MIC; type: cell-based, Staphylococcus aureus; conditions: progenitor Sa(F98Y), selection at 6x MIC
Sa43300(H149R) = experiment: Mutant selection / mutational frequency at 6x MIC; type: cell-based, Staphylococcus aureus; conditions: progenitor Sa(H149R), selection at 6x MIC
S. aureus 43300 = conditions: cited from earlier work
Sa(H30N, F98Y) DHFR = Sa(H30N, F98Y) DHFR (Staphylococcus aureus, UniProt P0A017, F99Y/H31N); experiment: DHFR enzyme inhibition; type: biochemical; conditions: Ki ratio mutant vs wild-type

SMILES	Mutational Frequency, DHFR mutation F98Y (Sa43300)	Mutational Frequency, DHFR mutation H30N (Sa43300)	Mutational Frequency, DHFR mutation H149R (Sa43300)	Mutational Frequency, DHFR mutation F98Y/H30N (Sa43300(F98Y))	Mutational Frequency, DHFR mutation F98Y/H149R (Sa43300(H149R))	mutation frequencies (mutants F98Y and F98I in the DHFR gene) (S. aureus 43300)	loss in affinity for Sa (F98Y, H30N) double mutant enzyme relative to wild-type (Sa(H30N, F98Y) DHFR) [fold]
CCc1nc(N)nc(N)c1C#CC(C)c1cc(OC)cc(-c2ccncc2)c1 (centres unmarked) [Compound 1]	3.11 x 10^−11	4.67 x 10^−11	1.65 x 10^−10	8.2 x 10^−12	1.23x10^−11	10^−10	
CCc1nc(N)nc(N)c1C#C[C@H](C)c1cc2c(c(-c3ccncc3)c1)OCO2 [Compound 7]							180 to 300
CCc1nc(N)nc(N)c1C#CC(C)c1cc2c(c(-c3ccncc3)c1)OCO2 (centres unmarked) [Compound 2]							180 to 300
